From patent US9198415B2, “Plant irrigation methods” (Syngenta Participations AG, priority 2010, dated 2015)
Marks after values point to notes of the source that are not given here.

What was measured:
Type in all cases: in vivo
Soybean plants [1] = assay: Soybean plants in pouches, drench application, drought stress and rewatering, shoot dry weight; conditions: for Total Shoot Weight: 6 days drought, shoot dry weight 2 days after rewatering, 40 plants, untreated check 4.3 g
Experimental: Soybean plants were grown in pouches (in filter paper bags) and either BION or Thiamethoxam was applied to the water at different rates (see FIG. 2). Sowing and drench application of the compounds occurred simultaneously. After 8 days of optimal growth, the pouches went dry and plants were grown under drought stress conditions for 6 days. At the end of the drought period, plants were rewatered and shoot dry weight was determined 2 days later (Table 2). In total, 40 plants per treatment and 40 untreated check plants were assessed.

Corn plants = assay: Corn in 55-gal lysimeter containers, sub-surface chemigation, deficit water conditions, yield and root architecture; conditions: maximum labeled rate; for Yield (% difference from UTC): sub-surface chemigation at V3/V4, deficit water (50% plant-available water), 12 plants; for Relative number of fine roots (% difference from UTC): sub-surface chemigation at V3/V4, deficit water, measured within 2 weeks of harvest by digital imaging
Text: In this experiment, standardized growth conditions were applied across all corn treatments including: soil-water availability, soil texture and composition, soil chemical and physical properties, meteorological and environmental parameters, and plant nutrition in a greenhouse. No indication of plant disease or pest damage was observed over the course of the study and no pest management program was necessary. A homogeneous sand-organic matter soil mixture (0.18% organic matter) was used as the growth medium in 55-gal containers. These containers were used as a weighing lysimeter, where daily changes in system weight were used to calculate plant transpiration. Four corn plants were grown in each 55-gal container. Three 55-gal containers (12 plants total) made up each treatment. All irrigation and chemical treatments were applied via sub-surface irrigation. Chemical treatments consisted of: azoxystrobin (Quadris), paclobutrazol (Trimmit), trinexapac-ethyl (Moddus), and propiconazole (Tilt) at maximum labeled rates.
Corn plants were grown from seed and transplanted in the 55-gal drums approximately 14 days after planting. Uniform adequate irrigation was applied up to growth stage V3/V4 to ensure plant establishment. Chemical treatment applications were applied at growth stage V3/V4 via sub-surface chemigation. At stage V3/V4, irrigation was decreased to replicate deficit water conditions across all treatments for the remainder of the study period. Irrigation was managed daily to maintain 50% plant-available water. Visual signs of abiotic plant stress were observed approximately 30 days after chemical application. All corn plants were grown to yield and cobs were harvested when kernels were uniformly dry (15% moisture content). Root architecture, specifically relative number of fine roots, was measured at within 2 weeks of harvest using a digital imaging technique. Fine roots are related to water uptake productivity, which is directly tied to the ability of the plant to access soil-water under stress.
Effects of the chemical treatments via sub-surface irrigation on yield and root architecture were specifically documented. The effects are herein reported as the percentage increase compared to the untreated check (12 plants in three containers). […] Azoxystrobin, paclobutrazol, and trinexapac-ethyl were statistically different from the control (P values: <0.001 at the 95th percentile confidence interval).

Soybean plants [2] = assay: Soybean plants in pouches, drench application, severe drought stress, qualitative ranking of physiological state; conditions: for Plant physiological state: Desiccated (number of plants in %) / Plant physiological state: Slightly withered (number of plants in %) / Plant physiological state: Strongly withered (number of plants in %) / Plant physiological state: Turgescent (number of plants in %): evaluation 14 days after application
Experimental: Soybean plants were grown in pouches (in filter paper bags), and 100 plants each were treated with BION at 3 rates (60, 20, 2 ppm), added to the drench water. Sowing and drench application of BION occurred simultaneously. After 8 days of optimal growth, the pouches went dry and plants were grown for several days under severe drought stress conditions until evaluation (14 days after application). A qualitative assessment was carried out, ranking the plants behaviour into four categories corresponding to four different physiological states (turgescent, slightly withered, strongly withered and desiccated) (Table 1)

[3] = 2 ppm in drench water, severe drought
[4] = 20 ppm in drench water, severe drought
[5] = 60 ppm in drench water, severe drought

CN1COCN(Cc2cnc(Cl)s2)/C1=N\[N+](=O)[O-] [TMX]
Total Shoot Weight (Soybean plants [1]; 3 ppm in water): 4.6 g
Total Shoot Weight (Soybean plants [1]; 12 ppm in water): 5.8 g

CCCC1COC(Cn2cncn2)(c2ccc(Cl)cc2Cl)O1 (stereo not drawn) [Propiconazole]
Yield (% difference from UTC) (Corn plants): 3.3%
Relative number of fine roots (% difference from UTC) (Corn plants): 39.4† %

CSC(=O)c1cccc2nnsc12 [ASM, S-methyl benzo[1,2,3]thiadiazole-7-carbothioate]
Plant physiological state: Desiccated (number of plants in %) (Soybean plants [2]; [3]): 0.0%
Plant physiological state: Slightly withered (number of plants in %) (Soybean plants [2]; [3]): 70.0%
Plant physiological state: Strongly withered (number of plants in %) (Soybean plants [2]; [3]): 5.0%
Plant physiological state: Turgescent (number of plants in %) (Soybean plants [2]; [3]): 25.0%
Plant physiological state: Desiccated (number of plants in %) (Soybean plants [2]; [4]): 5.3%
Plant physiological state: Slightly withered (number of plants in %) (Soybean plants [2]; [4]): 7.9%
Plant physiological state: Strongly withered (number of plants in %) (Soybean plants [2]; [4]): 2.6%
Plant physiological state: Turgescent (number of plants in %) (Soybean plants [2]; [4]): 84.2%
Plant physiological state: Desiccated (number of plants in %) (Soybean plants [2]; [5]): 0.0%
Plant physiological state: Slightly withered (number of plants in %) (Soybean plants [2]; [5]): 15.2%
Plant physiological state: Strongly withered (number of plants in %) (Soybean plants [2]; [5]): 0.0%
Plant physiological state: Turgescent (number of plants in %) (Soybean plants [2]; 60 ppm in drench water, severe drought, 100 plants): 84.8%
Treated plants still fully turgescent at the end of the drought period (Soybean plants [2]; dose not stated, severe drought): more than 80%
Behaviour of treated plants after severe drought compared to untreated check (Soybean plants [2]; qualitative): behaved much better after severe drought
Total Shoot Weight (Soybean plants [1]; 5 ppm in water): 4.1 g
Total Shoot Weight (Soybean plants [1]; 15 ppm in water): 5.6 g
Health of treated plants after drought compared to untreated check (Soybean plants [1]; qualitative, FIG. 1): behaved extremely healthy

CC(C)(C)[C@@H](O)[C@@H](Cc1ccc(Cl)cc1)n1cncn1 (racemic) [Paclobutrazol, (2RS,3RS)-1-(4-chlorophenyl)-4,4-dimethyl-2-(1H-1,2,4-triazol-1-yl)pentan-3-01]
Yield (% difference from UTC) (Corn plants): 16.6† %
Relative number of fine roots (% difference from UTC) (Corn plants): 70.0† %

CCOC(=O)C1CC(=O)C(=C(O)C2CC2)C(=O)C1 (stereo not drawn) [Trinexapac-ethyl]
Yield (% difference from UTC) (Corn plants): 15.6† %
Relative number of fine roots (% difference from UTC) (Corn plants): 34.3† %

CO/C=C(/C(=O)OC)c1ccccc1Oc1cc(Oc2ccccc2C#N)ncn1 [Azoxystrobin]
Yield (% difference from UTC) (Corn plants): 12.5† %
Relative number of fine roots (% difference from UTC) (Corn plants): 37.3† %
